Assay results: patent US12545637B2, “Extrahepatic targeted cationic lipid compound with high efficiency and low toxicity and its composition” (BEIJING YOUCARE KECHUANG PHARMACEUTICAL TECHNOLOGY CO., LTD., priority 2023, dated 2026)

Tests used:
[1] = Particle size and polydispersity index (PDI) of lipid nanoparticles by dynamic light scattering; format: physicochemical
Experimental: The particle size and polydispersity index (PDI) were determined by dynamic light scattering using Malvern laser particle size analyzer.
10 μL of the liposome solution was weighed, diluted to 1 mL with RNase-free deionized water, and added to the sample pool. Each sample was measured in triplicate. The measurement conditions were: […] scattering angle, and 25° C.

293T cells = assay: Cell survival rate assay (CCK-8); format: cell-based
Summary of the method: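 293T cells seeded at 10,000 cells/well, cultured overnight, then exposed 24 h to LNP carrying 1.5 μg Fluc-mRNA (cationic:neutral:structured:PEG-type lipid 49:10:39.5:1.5) or Lipofectamine 3000. Viability read by CCK-8, 1 h incubation, absorbance at 450 nm.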

female BALB/C mice = assay: In vivo imaging in mice of Fluc-mRNA LNP formulations (mRNA expression and duration)
Summary of the method: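 Female BALB/C mice (4-6 weeks, 17-19 g) received LNP carrying […] Fluc-mRNA intramuscularly. At 6h, 24 h, 48h and 7d, fluorescent imaging substrate was given intraperitoneally and after 5 minutes average radiance, as a measure of expressed protein, was imaged on an IVIS Spectrum system.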

## CCCCCCCCC(CCCCCCCC)COC(=O)CCCCCN(CCCO)CCCN(CCCO)CCCCCC(=O)OCC(CCCCCCCC)CCCCCCCC [YK-423, di(2-octyldecyl) 6,6′-(propan-1,3-diyl-bis((3-hydroxypropyl)azanediyl))dihexanoate]
[1]; LNP formulation of the cationic lipid, 25° C.
  PDI: 11.7%
[1]; LNP formulation of the cationic lipid/DSPC/cholesterol/DMG-PEG2000 49:10:39.5:1.5, 25° C.
  Particle size: 175 nm
293T cells; LNP with 1.5 μg Fluc-mRNA, 24 hours, CCK-8
  Cell survival rate: 71.14%
293T cells; difference vs ALC-0315
  cell survival rate higher than ALC-0315: 23.93%
293T cells; difference vs HIMA (HHMA)
  cell survival rate higher than HIMA: 6.87%
293T cells; difference vs Lipofectamine 3000
  cell survival rate higher than Lipofectamine 3000: 49.48%
293T cells; difference vs SM-102
  cell survival rate higher than SM-102: 3.24%
293T cells; difference vs YK-404
  cell survival rate higher than YK-404: 29.02%
293T cells; difference vs YK-405
  cell survival rate higher than YK-405: 29.28%
293T cells; difference vs YK-406
  cell survival rate higher than YK-406: 46.18%
293T cells; difference vs YK-408
  cell survival rate higher than YK-408: 28.83%
293T cells; difference vs YK-409
  cell survival rate higher than YK-409: 25.03%
293T cells; difference vs YK-410
  cell survival rate higher than YK-410: 26.22%
293T cells; difference vs YK-411
  cell survival rate higher than YK-411: 54.81%
293T cells; difference vs YK-412
  cell survival rate higher than YK-412: 17.00%
293T cells; difference vs YK-413
  cell survival rate higher than YK-413: 23.94%
293T cells; difference vs YK-414
  cell survival rate higher than YK-414: 42.39%
293T cells; difference vs YK-415
  cell survival rate higher than YK-415: 9.98%
293T cells; difference vs YK-416
  cell survival rate higher than YK-416: 30.17%
293T cells; difference vs YK-417
  cell survival rate higher than YK-417: 49.80%
293T cells; difference vs YK-418
  cell survival rate higher than YK-418: 50.09%
293T cells; difference vs YK-419
  cell survival rate higher than YK-419: 32.22%
293T cells; difference vs YK-420
  cell survival rate higher than YK-420: 35.55%
293T cells; difference vs YK-421
  cell survival rate higher than YK-421: 35.43%
293T cells; difference vs YK-424
  cell survival rate higher than YK-424: 43.21%
293T cells; difference vs compound 21
  cell survival rate higher than compound 21: 3.30%
293T cells; difference vs compound 23
  cell survival rate higher than compound 23: 2.03%
293T cells; rounded summary statement vs YK-411
  cytotoxicity reduced compared with YK-411: 50%
Female BALB/C mice; 6 h
  average radiation intensity, times that of ALC-0315: 1.94
  average radiation intensity, times that of HHMA: 2.46
  average radiation intensity, times that of SM-102: 2.35
  average radiation intensity, times that of compound 21: 2.71
  average radiation intensity, times that of compound 23: 2.80
  expression amount in mice, times that of YK-415: 13.81
  expression amount in mice, times that of YK-417: 26.91
  mRNA expression in mice, times that of YK-411: 278.19
Female BALB/C mice; 24 h
  average radiation intensity, times that of ALC-0315: 3.99
  average radiation intensity, times that of HHMA: 6.30
  average radiation intensity, times that of SM-102: 6.13
  average radiation intensity, times that of compound 21: 6.81
  average radiation intensity, times that of compound 23: 7.49
  expression amount in mice, times that of YK-415: 11.73
  expression amount in mice, times that of YK-417: 37.85
  mRNA expression in mice, times that of YK-411: 374.12
Female BALB/C mice; 48 h
  average radiation intensity, times that of ALC-0315: 8.73
  average radiation intensity, times that of HHMA: 10.50
  average radiation intensity, times that of SM-102: 10.65
  average radiation intensity, times that of compound 21: 11.10
  average radiation intensity, times that of compound 23: 10.64
  expression amount in mice, times that of YK-415: 22.17
  expression amount in mice, times that of YK-417: 49.70
  mRNA expression in mice, times that of YK-411: 359.10
Female BALB/C mice; 7 d
  average radiation intensity, times that of ALC-0315: 1.44
  average radiation intensity, times that of HHMA: 1.69
  average radiation intensity, times that of SM-102: 1.50
  average radiation intensity, times that of compound 21: 1.58
  average radiation intensity, times that of compound 23: 1.65
  expression amount in mice, times that of YK-415: 2.50
  expression amount in mice, times that of YK-417: 4.42
  mRNA expression in mice, times that of YK-411: 21.03
Female BALB/C mice; Fluc-mRNA LNP intramuscular, 6 h after administration
  average radiation intensity, 6 h: 1627420
Female BALB/C mice; Fluc-mRNA LNP intramuscular, 24 h after administration
  average radiation intensity, 24 h: 756472
Female BALB/C mice; Fluc-mRNA LNP intramuscular, 48 h after administration
  average radiation intensity, 48 h: 350120
Female BALB/C mice; Fluc-mRNA LNP intramuscular, 7 d after administration
  average radiation intensity, 7 d: 10093
